Literature values in patent US6815424B2, “Intranasal administration of polypeptides in powdered form” (Pfizer Corporation, priority 1987, dated 2004).

Settings: in vivo, inhaled or intranasal

bioavailability compared to injection: about 2%
Compound: CC(C)C[C@H](NC(=O)[C@@H](Cc1ccc2ccccc2c1)NC(=O)[C@H](Cc1ccc(O)cc1)NC(=O)[C@H](CO)NC(=O)[C@H](Cc1c[nH]c2ccccc12)NC(=O)[C@H](Cc1c[nH]cn1)NC(=O)[C@@H]1CCC(=O)N1)C(=O)N[C@@H](CCCNC(=N)N)C(=O)N1CCC[C@H]1C(=O)NCC(N)=O [nafarelin acetate, L-pyroglutamyl-L-histidyl-L-tryptophyl-L-seryl-L-tyrosyl-D-3-(2-naphthyl)alanyl-L-leucyl-L-arginyl-L-prolyl-glycinamide]
